How the values were obtained:
[1] = system: Resistant Plutella xylostella R1 (multi-resistant larvae having the G4946E resistance mutation); test: Resistant Plutella xylostella R1 (Diamond back moth) larvicide L3, feeding/contact, sprayed Chinese cabbage leaves; type: in vivo; details: for pest or weed control at 50 µg/mL: Plutella xylostella, 96 h, read-out: control of the resistant strain of Plutella xylostella R1
Description: Resistant Plutella xylostella R1 (Diamond back moth) larvicide L3, feeding/contact Chinese cabbage plants were sprayed with diluted test solutions in an application chamber. Cut off leaves were placed into petri dishes with wetted filter paper and infested 1 day after application with 10 L3 multi-resistant Plutella xylostella larvae having the G4946E resistance mutation.
Samples were assessed 4 days after infestation for mortality and growth regulation.
Chlorantraniliprole was used as standard and a resistance factor of 146 was obtained for this strain.
Plutella xylostella resistant strain R1 originally collected from Taiwan in 2012 that carries the RyR mutation G4946E conferring resistance to diamides. The strain is reared on cabbage plants (Brassica aleracea) and selected approximately every two weeks with chlorantraniliprole.

[2] = system: Resistant Plutella xylostella R4 (carries the RyR mutation G4946E); test: Resistant Plutella xylostella R4 (Diamond back moth) larvicide L1, feeding/contact, artificial diet in 24-well plates; type: in vivo; details: for pest or weed control at 50 µg/mL: Plutella xylostella, 192 h, read-out: control of the resistant strain of Plutella xylostella R4
Description: Resistant Plutella xylostella R4 (Diamond back moth) larvicide L1, feeding/contact 24-well microtiter plates with artificial diet were treated with aqueous test solutions prepared from 10′000 ppm DMSO stock solutions by pipetting. After drying, around 30 Plutella eggs were pipetted through a plastic stencil onto a gel blotting paper and the plate was closed with it. The samples were assessed for mortality in comparison to untreated samples 8 days after infestation.
Chlorantraniliprole was used as standard and a resistance factor of 242 was obtained for this strain
Plutella xylostella resistant strain R4 originated in the lab in 2021 from crossing the R1 strain with a lab-reared susceptible P. xylostella strain (SUS). R4 can be reared and tested on artificial diet and also carries the RyR mutation G4946E conferring resistance to diamides. The strain is selected approximately every two weeks with chlorantraniliprole. The following compounds, according to the present invention, gave at least 80% control of the resistant strain of Plutella xylostella R4 at 50 ppm or below: P11, P18, P26, P31, P33, P34, P36, P38, P42, P43, P46, P49, P50, P52, P56, P58, P60, P61, P63, P64, P65, P66, P67, P73, P76, P84, P97, P99, P102, P105.

[3] = system: Plutella xylostella (Diamond back moth) ryanodine receptor, containing the G4946E resistance mutation; test: In vitro calcium fluorescence assay (Fluo-8 NW, FDSS) in human embryonic kidney cells expressing the ryanodine receptor; type: cell-based; details: table, EC50 (compound)/EC50 (cyantraniliprole), G4946E RyR in HEK cells
Description: Human embryonic kidney cells expressing the Plutella xylostella (Diamond back moth) ryanodine receptor, containing the G4946E resistance mutation, are loaded with Fluo-8 No Wash (NW) calcium-sensitive dye which responds by fluorescence to a change in intracellular calcium (e.g. stimulated by activation of ryanodine receptor). Test compounds are added in 10 rates to a 384-well plate containing dye-loaded cells and the fluorescent signal is measured using the Hamamatsu FDSS (Functional Drug Screening system). Dose-response curves are plotted to estimate the EC50. EC50 are normalized against an in-assay reference standard (cyantraniliprole) to address inter-assay variability. The ratio for a given compound is then obtained by the following formula:
REC50=EC50 (compound)/EC50 (cyantraniliprole).

Structure (SMILES) | REC50 (Compound of the invention) [3] | melting point | other results
Cc1cc(Br)cc(C(N)=O)c1NC(=O)c1cc(C(F)(F)F)nn1-c1ncccc1Cl [Compound P26, N-(4-bromo-2-carbamoyl-6-methyl-phenyl)-2-(3-chloro-2-pyridyl)-5-(trifluoromethyl)pyrazole-3-carboxamide] | 0.19 | – | pest or weed control at 50 µg/mL [1]: ≥ 80%; pest or weed control at 50 µg/mL [2]: ≥ 80%
NC(=O)c1cc(Br)cc(Cl)c1NC(=O)c1cc(Cn2ncc(C(F)(F)F)n2)nn1-c1ncccc1Cl [Compound P37, N-(4-bromo-2-carbamoyl-6-chloro-phenyl)-2-(3-chloro-2-pyridyl)-5-[[4-(trifluoromethyl)triazol-2-yl]methyl]pyrazole-3-carboxamide] | – | 185 to 190 °C | –
Cc1cc(Cl)cc(C(N)=O)c1NC(=O)c1cc(CS(C)(=O)=O)nn1-c1ncccc1Cl | – | 140 to 145 °C | –
COCc1cc(C(=O)Nc2c(C)cc(Cl)cc2C(N)=O)n(-c2ncccc2Cl)n1 | – | 225 to 230 °C | –
Cc1cc(Cl)cc(C(N)=O)c1NC(=O)c1cc(COCc2ccc(Cl)cc2)nn1-c1ncccc1Cl [Compound P5, N-(2-carbamoyl-4-chloro-6-methyl-phenyl)-5-[(4-chlorophenyl)methoxymethyl]-2-(3-chloro-2-pyridyl)pyrazole-3-carboxamide] | 0.31 | 174 to 176 °C | –
Cc1cc(Cl)cc(C(N)=O)c1NC(=O)c1cc(Br)nn1-c1ncccn1 | – | 187 to 198 °C | –
Cc1cc(Br)cc(C(N)=O)c1NC(=O)c1cc(Cn2cc(C(F)(F)F)nn2)nn1-c1ncccc1Cl [Compound P35, N-(4-bromo-2-carbamoyl-6-methyl-phenyl)-2-(3-chloro-2-pyridyl)-5-[[4-(trifluoromethyl)triazol-1-yl]methyl] pyrazole-3-carboxamide] | – | 190 to 195 °C | –
Cc1cc(C#N)cc(C(N)=O)c1NC(=O)c1cc(C(F)(F)F)nn1-c1ncccc1Cl [Compound P31, N-(2-carbamoyl-4-cyano-6-methyl-phenyl)-2-(3-chloro-2-pyridyl)-5-(trifluoromethyl)pyrazole-3-carboxamide] | 0.28 | – | pest or weed control at 50 µg/mL [1]: ≥ 80%; pest or weed control at 50 µg/mL [2]: ≥ 80%
NC(=O)c1cc(Br)cc(F)c1NC(=O)c1cc(Cn2nnc(C(F)(F)F)n2)nn1-c1ncccc1Cl [Compound P41, N-(4-bromo-2-carbamoyl-6-fluoro-phenyl)-2-(3-chloro-2-pyridyl)-5-[[5-(trifluoromethyl)tetrazol-2-yl]methyl]pyrazole-3-carboxamide] | – | 110 to 115 °C | –
Cc1cc(Cl)cc(C(N)=O)c1NC(=O)c1cc(C2(C#N)CC2)nn1-c1ncccc1Cl [Compound P72, N-(2-carbamoyl-4-chloro-6-methyl-phenyl)-2-(3-chloro-2-pyridyl)-5-(1-cyanocyclopropyl)pyrazole-3-carboxamide] | – | 225 to 230 °C | –
NC(=O)c1cc(Br)cc(Cl)c1NC(=O)c1cc(Cn2cc(C(F)(F)F)nn2)nn1-c1ncccc1Cl | – | 135 to 140 °C | –
Cc1cc(Cl)cc(C(N)=O)c1NC(=O)c1cc(C2(F)CC2)nn1-c1ncccc1Cl | – | 225 to 230 °C | –
CNC(=O)c1cc(Cl)cc(C)c1NC(=O)c1cc(Br)nn1-c1ncccc1Cl [Chlorantraniliprole, chlorantraniliprole, reference compound] | – | – | resistance factor ([1]; strain R1, chlorantraniliprole used as standard): 146; resistance factor ([2]; strain R4, chlorantraniliprole used as standard): 242; REC50 (Comparative compound) ([3]; secondary amide analogue): 0.35
CCc1cc(C(=O)Nc2c(C)cc(Cl)cc2C(N)=O)n(-c2ncccc2Cl)n1 [Compound P75, N-(2-carbamoyl-4-chloro-6-methyl-phenyl)-2-(3-chloro-2-pyridyl)-5-ethyl-pyrazole-3-carboxamide] | 0.69 | 245 to 250 °C | –
COc1cc(C(=O)Nc2c(Cl)cc(Cl)cc2C(N)=O)n(-c2ncccc2Cl)n1 [Compound P59, N-(2-carbamoyl-4,6-dichloro-phenyl)-2-(3-chloro-2-pyridyl)-5-methoxy-pyrazole-3-carboxamide] | 0.62 | 155 to 160 °C | –
Cc1cc(C#N)cc(C(N)=O)c1NC(=O)c1cc(Cn2nnc(-c3ccc(C(F)(F)F)cc3)n2)nn1-c1ncccc1Cl [Compound P67, N-(2-carbamoyl-4-cyano-6-methyl-phenyl)-2-(3-chloro-2-pyridyl)-5-[[5-[4-(trifluoromethyl)phenyl]tetrazol-2-yl]methyl]pyrazole-3-carboxamide] | 0.63 | – | pest or weed control at 50 µg/mL [1]: ≥ 80%; pest or weed control at 50 µg/mL [2]: ≥ 80%
Cc1cc(Cl)cc(C(N)=O)c1NC(=O)c1cc(C2CC2)nn1-c1ncccc1Cl [Compound P76, N-(2-carbamoyl-4-chloro-6-methyl-phenyl)-2-(3-chloro-2-pyridyl)-5-cyclopropyl-pyrazole-3-carboxamide] | 0.42 | – | pest or weed control at 50 µg/mL [1]: ≥ 80%; pest or weed control at 50 µg/mL [2]: ≥ 80%
Cc1cc(Cl)cc(C(N)=O)c1NC(=O)c1cc(C[S+](C)[O-])nn1-c1ncccc1Cl (centres unmarked) | – | 125 to 130 °C | –
NC(=O)c1cc(Cl)cc(Br)c1NC(=O)c1cc(Br)nn1-c1ncccc1Cl [Compound P34, 5-bromo-N-(2-bromo-6-carbamoyl-4-chloro-phenyl)-2-(3-chloro-2-pyridyl) pyrazole-3-carboxamide] | 0.18 | – | pest or weed control at 50 µg/mL [1]: ≥ 80%; pest or weed control at 50 µg/mL [2]: ≥ 80%
Cc1cc(C#N)cc(C(N)=O)c1NC(=O)c1cc(COCc2ccc(Cl)cc2)nn1-c1ncccc1Cl [Compound P12, N-(2-carbamoyl-4-cyano-6-methyl-phenyl)-5-[(4-chlorophenyl)methoxymethyl]-2-(3-chloro-2-pyridyl)pyrazole-3-carboxamide] | – | 109 to 112 °C | –
Cc1cc(Cl)cc(C(N)=O)c1NC(=O)c1cc(CC#N)nn1-c1ncccc1Cl [Compound P70, N-(2-carbamoyl-4-chloro-6-methyl-phenyl)-2-(3-chloro-2-pyridyl)-5-(cyanomethyl)pyrazole-3-carboxamide] | – | 180 to 185 °C | –
NC(=O)c1cc(Cl)cc(Cl)c1NC(=O)c1cc(Br)nn1-c1ncc(Cl)cc1Cl [Compound P33, 5-bromo-N-(2-carbamoyl-4,6-dichloro-phenyl)-2-(3,5-dichloro-2-pyridyl) pyrazole-3-carboxamide] | 0.31 | – | pest or weed control at 50 µg/mL [1]: ≥ 80%; pest or weed control at 50 µg/mL [2]: ≥ 80%
COc1cc(C(=O)Nc2c(Br)cc(Cl)cc2C(N)=O)n(-c2ncccc2Cl)n1 [Compound P55, N-(2-bromo-6-carbamoyl-4-chloro-phenyl)-2-(3-chloro-2-pyridyl)-5-methoxy-pyrazole-3-carboxamide] | – | 205 to 210 °C | –
NC(=O)c1cc(Cl)cc(Br)c1NC(=O)c1cc(Cn2cc(C(F)(F)F)nn2)nn1-c1ncccc1Cl | – | > 250 °C | –
Cc1cc(I)cc(C(N)=O)c1NC(=O)c1cc(Br)nn1-c1ncccc1Cl [Compound P63, 5-bromo-N-(2-carbamoyl-4-iodo-6-methyl-phenyl)-2-(3-chloro-2-pyridyl) pyrazole-3-carboxamide] | 0.19 | – | pest or weed control at 50 µg/mL [1]: ≥ 80%; pest or weed control at 50 µg/mL [2]: ≥ 80%
Cc1cc(Br)cc(C(N)=O)c1NC(=O)c1cc(I)nn1-c1ncccc1Cl [Compound P39, N-(4-bromo-2-carbamoyl-6-methyl-phenyl)-2-(3-chloro-2-pyridyl)-5-iodo-pyrazole-3-carboxamide] | – | > 250 °C | –
Cc1cc(I)cc(C(N)=O)c1NC(=O)c1cc(C(F)F)nn1-c1ncccc1Cl | – | 155 to 160 °C | –
CSCc1cc(C(=O)Nc2c(C)cc(Cl)cc2C(N)=O)n(-c2ncccc2Cl)n1 [Compound P79, N-(2-carbamoyl-4-chloro-6-methyl-phenyl)-2-(3-chloro-2-pyridyl)-5-(methylsulfanylmethyl)pyrazole-3-carboxamide] | – | 175 to 180 °C | –
